Laboratory results published in patent publication US7205298B2, “Substituted triazine kinase inhibitors” (Janssen Pharmaceutica N.V., priority 2002, dated 2007).

Tests used:
CDK1:Cyclin-B = molecular target: T1, CDK1:Cyclin-B (Homo sapiens, UniProt P06493); experiment: CDK1 Screening Assay; format: biochemical
T1 construct: purchased New England Biolabs 6020; host or cells: insect cells
Method: A kinase reaction mixture was prepared containing 50 mM Tris-HCl pH=8, 10 mM MgCl2, 0.1 mM Na3PO4, 1 mM DTT, 10 μM ATP, 0.025 μM biotinylated histone-H1 peptide substrate (also referred to herein as a CDK-1 peptide substrate, see substrate table) and 0.2 μCuries per well ^33P-γ-ATP (2000–3000 Ci/mmol). 70 μL of the kinase reaction mixture was dispensed into the well of a streptavidin coated FlashPlate™ (Cat. # SMP 103, NEN, Boston, Mass.). Then 1 μL of test compound stock in 100% DMSO was added to the wells resulting in a final concentration of 1% DMSO in the reaction with a 100 μl final reaction volume. Next, CDK1:Cyclin-B protein (New England Biolads, infra) was diluted in 50 mM Tris-HCl pH=8.0, 0.1% BSA at a concentration of 1 ng per μL and 30 μl (30 ng enzyme per test well) was added to each well to initiate the reaction. The reaction was incubated for one hour at 30° C. At the end of the 1-hour incubation, the reaction was terminated by aspirating the reaction mixture from the plate and washing the wells twice with PBS containing 100 mM EDTA. The histone-H1 biotinylated peptide substrate became immobilized on the Flashplate™ (Perkin Elmer, NEN Boston, Mass.) and the incorporation of ^33P-γ-ATP was measured by reading the plate on a scintillation counter. Inhibition of the enzymatic activity of CDK1 was measured by observing a reduced amount of ^33P-γ-ATP incorporated into the immobilized peptide.
(§1) Assays to test compound inhibition of other kinases were preformed using methods that measure the amount of phosphorylation of a biotinylated peptide substrate. Biotinylated peptide substrates were selected from the literature as appropriate for the enzyme being evaluated. The general procedure used to assay for kinase activity is as follows: a kinase reaction mix was prepared in 50 mM Tris-HCl pH=8, 10 mM MgCl2, 0.1 mM Na3VO4, 1 mM DTT, 10 μM ATP, 0.25–1 μM biotinylated peptide substrate, 0.2–0.8 μCuries per well ^33P-γ-ATP (2000–3000 Ci/mmol). Assay conditions vary slightly for each protein kinase, for example, insulin receptor kinase requires 10 mM MnCl2 for activity and Calmodulin-dependent protein kinase requires calmodulin and 2 mM CaCl2. The reaction mixture was dispensed into the wells of a streptavidin coated Flashplate and 1 μL test compound in 100% DMSO was added to a 100 μL reaction volume resulting in a final concentration of 1% DMSO in the reaction. Enzyme was diluted in 50 mM Tris-HCl pH=8.0, 0.1% BSA and added to each well. The reaction was incubated for one hour at 30° C. in the presence of a test compound. After one hour the reaction mix was aspirated from the plate and the plate was washed with PBS containing 100 mM EDTA. The plate was read on a scintillation counter to determine ^33P-γ-ATP incorporated into the immobilized peptide substrate. Test compounds were assayed in duplicate at 8 concentrations (100 μM, 10 μM, 1 μM, 100 nM, 10 nM, 1 nM, 100 pM, 10 pM). A maximum and minimum signal for the assay was determined on each plate. […] Known inhibitor compounds appropriate for the kinase being assayed were also included on each plate.
(§2) The form of VEGF-R (vascular endothelial growth factor receptor-2) used was a fusion protein containing a polyhistidine tag at the N-terminus followed by amino acids 786–1343 of the rat VEGF-R2 kinase domain (GenBank Accession #U93306). The form of CDK1 (cyclin dependent kinase 1) used was isolated from insect cells expressing both the human CDK1 catalytic subunit and its positive regulatory subunit cyclin B (CDK1:cyclin B protein, New England Biolabs, Beverly, Mass., Cat. #6020). The form of CDK4 (cyclin dependent kinase 4) used contains amino acids 769 to 921 of the mouse […] protein found in the GST-retinoblastoma protein construct (Santa Cruz Biotechnology, Santa Cruz, Calif.; Cat. #SC-4112). The form of EGF-R1 (epidermal growth factor receptor 1) used was purified from human A431 cell membranes (Sigma, St. Louis, Mo., Cat.# E3641). […]

[1] = molecular target: T2, VEGF-R (rat VEGF-R2 kinase domain) (Rattus norvegicus, UniProt O08775); experiment: VEGF-R Screening Assay; format: biochemical
T2 construct: 6xHis (polyhistidine) (N)
T2 sequence (O08775 786-1343): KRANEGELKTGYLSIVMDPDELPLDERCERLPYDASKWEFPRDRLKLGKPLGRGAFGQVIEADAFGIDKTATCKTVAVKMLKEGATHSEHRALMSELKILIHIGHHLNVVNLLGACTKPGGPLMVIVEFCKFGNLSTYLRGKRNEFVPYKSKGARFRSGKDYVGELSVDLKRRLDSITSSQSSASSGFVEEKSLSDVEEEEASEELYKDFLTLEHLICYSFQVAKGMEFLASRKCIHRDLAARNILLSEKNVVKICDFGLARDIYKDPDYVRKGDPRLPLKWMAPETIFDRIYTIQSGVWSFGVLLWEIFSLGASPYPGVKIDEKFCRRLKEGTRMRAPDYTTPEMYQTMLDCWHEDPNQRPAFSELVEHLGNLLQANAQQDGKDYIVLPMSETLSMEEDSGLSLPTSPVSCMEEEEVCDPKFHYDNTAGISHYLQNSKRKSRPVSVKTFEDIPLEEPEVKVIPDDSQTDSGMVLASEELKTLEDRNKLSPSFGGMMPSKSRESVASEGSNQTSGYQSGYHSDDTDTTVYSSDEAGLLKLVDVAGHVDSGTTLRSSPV
Method: A kinase reaction mixture was prepared containing 50 mM Tris-HCl pH=8, 10 mM MgCl2, 0.1 mM Na3PO4, 1 mM DTT, 10 μM ATP, 0.025 μM biotinylated peptide substrate (also referred to herein as PLC-1 biotinylated peptide substrate and PDGF receptor substrate, sequence provided in the peptide substrate table) and 0.8 μCuries per well ^33P-γ-ATP (2000–3000 Ci/mmol). 70 μL of the kinase reaction mixture was dispensed into the well of a streptavidin coated FlashPlate™ (Cat. # SMP103, NEN, Boston, Mass.). Then 1 μL of test compound stock in 100% DMSO was added to the wells resulting in a final concentration of 1% DMSO in the reaction with a 100 μL final reaction volume. Next, soluble rat VEGF tyrosine kinase containing an N-terminal 6XHIS tag was diluted in 50 mM Tris-HCl pH=8.0, 0.1% BSA at a concentration of 5 ng per μL and 30 μL (150 ng enzyme per test well) was added to each well to initiate the reaction. The reaction was incubated for one hour at 30° C. At the end of the 1-hour incubation, the reaction was terminated by aspirating the reaction mixture from the plate and washing the wells twice with PBS containing 100 mM EDTA. The PLC1 biotinylated peptide substrate became immobilized on the Flashplate™ and the incorporation of ^33P-γ-ATP was measured by reading the plate on a scintillation counter. Inhibition of the enzymatic activity of the VEGF-R was measured by observing a reduced amount of ^33P-γ-ATP incorporated into the immobilized peptide.
as §1, §2

T1 sequence (P06493 whole entry): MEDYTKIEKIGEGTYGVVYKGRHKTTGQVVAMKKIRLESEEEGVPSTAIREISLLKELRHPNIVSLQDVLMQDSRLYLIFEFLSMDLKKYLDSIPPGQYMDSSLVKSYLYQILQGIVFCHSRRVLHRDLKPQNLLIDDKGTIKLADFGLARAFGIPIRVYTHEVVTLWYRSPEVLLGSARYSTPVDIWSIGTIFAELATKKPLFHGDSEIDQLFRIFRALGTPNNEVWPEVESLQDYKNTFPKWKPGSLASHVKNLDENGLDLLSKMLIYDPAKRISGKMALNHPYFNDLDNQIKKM
T1 sequence (P14635 whole entry partner): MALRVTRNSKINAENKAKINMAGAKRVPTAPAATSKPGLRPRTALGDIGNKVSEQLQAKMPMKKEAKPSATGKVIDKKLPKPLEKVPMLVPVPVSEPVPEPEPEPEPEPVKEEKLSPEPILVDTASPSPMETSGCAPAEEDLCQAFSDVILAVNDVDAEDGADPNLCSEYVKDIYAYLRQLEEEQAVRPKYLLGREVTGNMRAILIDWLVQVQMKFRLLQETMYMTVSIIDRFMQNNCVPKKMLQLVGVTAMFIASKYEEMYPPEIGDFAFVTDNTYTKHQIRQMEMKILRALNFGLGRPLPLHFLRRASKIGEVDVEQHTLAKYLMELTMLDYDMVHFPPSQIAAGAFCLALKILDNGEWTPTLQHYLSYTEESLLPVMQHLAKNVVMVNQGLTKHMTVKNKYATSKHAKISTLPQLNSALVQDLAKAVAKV

Structure (SMILES) | IC50 (CDK1:Cyclin-B) [nM] | IC50 [1] [nM]
OCCCNc1cncc(-c2ncnc(Nc3ccc(N4CCOCC4)cc3)n2)c1 [Compound 6, 3-((5-(4-((4-(4-morpholinyl)phenyl)amino)-1,3,5-triazin-2-yl)-3-pyridinyl)amino)-1-propanol] | 1240 | 5030
OCCCNc1cncc(-c2ncnc(Nc3ccc4c(c3)OCCO4)n2)c1 [Compound 5, 3-((5-(4-((2,3-dihydro-1,4-benzodioxin-6-yl)amino)-1,3,5-triazin-2-yl)-3-pyridinyl)amino)-1-propanol] | 382 | ≥ 10000
OCCCNc1cncc(-c2ncnc(Nc3cccc(Cl)c3)n2)n1 [Compound 3, 3-((6-(4-((3-chlorophenyl)amino)-1,3,5-triazin-2-yl)pyrazin-2-yl)amino)-1-propanol] | 971 | 12900
Nc1nc(Nc2cccc(Cl)c2)nc(-c2ccnc(NCCCO)c2)n1 [Compound 4, 3-((4-(4-amino-6-((3-chlorophenyl)amino)-1,3,5-triazin-2-yl)-2-pyridinyl)amino)-1-propanol] | 766 | 865
